In PMC10439952, “JT002, a small molecule inhibitor of the NLRP3 inflammasome for the treatment of autoinflammatory disorders” (Scientific Reports, 2023):

Key:
TNFα production = TNFα production in mouse BMDMs stimulated by LPS + nigericin; format: cell-based; details: Mouse BMDM, read-out: Geo Av IC50, TNFα
Excerpt: Inflammasome activation and whole blood assays were essentially carried out as described earlier. Details can be found in the supplementary information section accompanying this publication. A protocol for blood draws from healthy volunteers and use of the blood in preclinical assays was approved by Western Institutional Review Board, Inc (Puyallup, WA, USA). Informed consent was obtained from each donor prior to the first blood draw.
4H). MS: m/z 433.1 (M+H+).
Inflammasome activation.PBMCs (iXCells Biotechnologies, San Diego, USA) were thawed the day before the assay and seeded in complete medium (RPMI 1640 medium with GlutaMAX, supplemented with an additional 2.5 g/L D-glucose, 10% Fet al Bovine Serum, 100 mM Sodium Pyruvate, 1% Penicillin/Streptomycin, 10 mM HEPES and 0.05 mM β -mercaptoethanol) in polystyrene V-bottom 96-well plates at 5x10^4 cells per well and incubated overnight at 37°C with 5% CO 2. […]
flagellin, prepared in Opt iMEM and combined with Lipofectamine 2000. […] After priming Nlrp3 -/- mBMDMs with 100 ng/mL of LPS for 3- 5 h, cells were exposed to 100 ng/mL L18- MDP and incubated overnight.At the end of the incubation period of the assays above, plates were briefly centri fuged and hal f of the cell culture supern atant remo ved and either analysed i mmediately or stored at - 80°C for subs equent cytokine […]

[1] = system: ozone exposed C57BL6/J mice; test: Murine model of ozone induced neutrophilic airway inflammation; format: in vivo, mouse
Experimental: Four groups of 4 or 5 female C57BL6/J mice (The Jackson Laboratory, Bar Harbor, ME) at 8–12 weeks of age were housed under pathogen-free conditions and maintained on an ovalbumin-free diet. Mice were dosed orally with JT002 at 2.5 or 25 mg/kg once daily for 4 days. On the last day, 1-h post-dosing of test compound, mice were exposed to O3 at 1.0 ppm for 3 h in stainless steel wire cages set inside 240-L laminar flow inhalation chambers. O3 was generated by directing compressed medical-grade oxygen through an electrical discharge O3 generator (Sander Ozonizer, Model 25, Erwin Sander Elektroapparatebau GmbH, Uetze-Eltze, Germany) located upstream of the exposure chamber. Exposure to HEPA-filtered air was done in a separate chamber with age- and treatment-matched control animals.
Determination of airway hyperresponsiveness (AHR) AHR was assessed on Day 30 (iTreg model) or 3 h after the O3 exposure (ozone model) as a change in airway resistance (cm H2O/mL/s) after challenge with aerosolized methacholine with using a whole body plethysmograph-based system (National Jewish Medical and Research Center, Denver, CO). Methacholine aerosol was administered by nebulization in increasing concentrations (12.5–100 mg/mL) and RL was continuously computed by fitting flow, volume, and pressure to an equation of motion (Labview, National Instruments, Dallas, TX). Bronchoalveolar Lavage Immediately after assessment of AHR, lungs were lavaged via the tracheal tube with 1 mL of Hanks’ balanced salt solution (Gibco, Grand Island, NY). Total cell numbers were counted. Differential cell counts for neutrophils and macrophages were performed in a blinded fashion by counting at least 200 cells on cytocentrifuged preparations (Model Cytospin 3, Shandon Ltd, Runcorn, UK) stained with Leukostat (Fisher Diagnostics, Fair Lawn, NJ). Cell-free BAL fluid was stored at − 80 °C until measurements of cytokine levels by ELISA (eBioscience, San Diego, CA) were performed. Blood Collection Immediately following AHR measurement, mice were euthanized by exsanguination and blood collected for serum. Samples were stored at − 80 °C for subsequent measurement of immunoglobulin levels by ELISA. Lung Histology After BAL collection, lungs were inflated through the trachea with 1 mL of 10% formalin, removed and fixed in 10% formalin by immersion. Blocks of the lung tissue were cut around the main bronchus and embedded in paraffin blocks. Tissue sections (5 μm) were affixed to glass slides, and the slides were deparaffinized and stained with H&E for qualitative analysis of inflammatory cell influx and epithelial desquamation.

[2] = 2.5 mg/kg orally once daily for 4 days
[3] = 25 mg/kg orally once daily for 4 days

In the case of `CO[C@@H]1COc2c(S(=O)(=O)NC(=O)Nc3c4c(cc5c3CCC5)CCC4)cnn2C1` [JT002], the IC50 (TNFα production) is reported as > 10 µM, the AHR [1, 2] is reported as “strong trend for reduction” and the BAL neutrophilia [1, 2] is reported as “no effect”. For the same molecule, the “prevention of airway epithelial desquamation” value [1, 2] was “strong trend”, the “BAL fluid neutrophil numbers” value [1, 3] was “significantly reduced” and the “appearance of epithelial cells in the airway lumen” value [1, 3] was “visibly reduced”. For the same molecule, the “number of epithelial cells in the BAL fluid” value [1, 3] was “no effect” and the “ozone-induced AHR” value [1, 3] was “prevented ozone-induced AHR”.
